From the NIST ThermoML archive (doi:10.1021/je049556i)

Columns and labels:
[1] = 101 kPa, Liquid
[2] = xn = mol fraction of the nth substance listed; conditions: 101 kPa, Liquid

CC1OC(C)OC(C)O1 (stereo not drawn) [2,4,6-trimethyl-1,3,5-trioxane]
[1]
Conditions | mass density [kg/m3] | viscosity [mPa·s]
298.15 K | 988.35 | 1.107
303.15 K | 982.64 | 1.001
308.15 K | 976.44 | 0.907

CC1OC(C)OC(C)O1 (stereo not drawn) [2,4,6-trimethyl-1,3,5-trioxane] + CCCCO
[2]
Conditions | mass density, 298.15 K [kg/m3] | mass density, 303.15 K [kg/m3] | mass density, 308.15 K [kg/m3] | viscosity, 298.15 K [mPa·s] | viscosity, 303.15 K [mPa·s] | viscosity, 308.15 K [mPa·s]
x1 = 0.0289 | 814.71 | 810.8 | 806.91 | 2.46 | 2.164 | 1.917
x1 = 0.0582 | 823.46 | 819.5 | 815.51 | 2.311 | 2.037 | 1.809
x1 = 0.0804 | 829.94 | 825.93 | 821.87 | 2.204 | 1.948 | 1.732
x1 = 0.0999 | 835.53 | 831.47 | 827.35 | 2.116 | 1.873 | 1.668
x1 = 0.194 | 861.02 | 856.78 | 852.47 | 1.756 | 1.568 | 1.406
x1 = 0.3007 | 886.93 | 882.65 | 878.35 | 1.471 | 1.324 | 1.197
x1 = 0.4056 | 909.58 | 905 | 900.34 | 1.302 | 1.177 | 1.07
x1 = 0.5091 | 928.91 | 924.2 | 919.2 | 1.219 | 1.103 | 1.006
x1 = 0.6218 | 946.67 | 941.75 | 936.55 | 1.193 | 1.077 | 0.983
x1 = 0.6932 | 956.21 | 951.23 | 945.98 | 1.193 | 1.075 | 0.98
x1 = 0.8331 | 972.07 | 966.65 | 960.87 | 1.184 | 1.064 | 0.969
x1 = 0.9165 | 980.1 | 974.5 | 968.65 | 1.143 | 1.03 | 0.938
x1 = 1 | 988.35 | 982.64 | 976.44 | 1.107 | 1.001 | 0.907

CC1OC(C)OC(C)O1 (stereo not drawn) [2,4,6-trimethyl-1,3,5-trioxane] + CCCO
[2]
Conditions | mass density, 298.15 K [kg/m3] | mass density, 303.15 K [kg/m3] | mass density, 308.15 K [kg/m3] | viscosity, 298.15 K [mPa·s] | viscosity, 303.15 K [mPa·s] | viscosity, 308.15 K [mPa·s]
x1 = 0.0286 | 809.7 | 804.77 | 800.59 | 1.861 | 1.653 | 1.474
x1 = 0.0484 | 816.43 | 811.5 | 807.28 | 1.807 | 1.606 | 1.433
x1 = 0.0743 | 824.91 | 820 | 815.72 | 1.74 | 1.548 | 1.383
x1 = 0.101 | 833.29 | 828.4 | 824.06 | 1.676 | 1.492 | 1.334
x1 = 0.197 | 860.73 | 855.87 | 851.32 | 1.481 | 1.322 | 1.187
x1 = 0.3124 | 888.86 | 883.99 | 879.22 | 1.312 | 1.175 | 1.061
x1 = 0.4052 | 908.29 | 903.38 | 898.44 | 1.219 | 1.096 | 0.994
x1 = 0.527 | 930.22 | 925.2 | 920.07 | 1.145 | 1.034 | 0.942
x1 = 0.5689 | 936.94 | 931.88 | 926.69 | 1.129 | 1.021 | 0.931
x1 = 0.7214 | 958.42 | 953.17 | 947.75 | 1.105 | 1.001 | 0.915
x1 = 0.8026 | 968.19 | 962.8 | 957.27 | 1.105 | 1.002 | 0.915
x1 = 0.8948 | 978.07 | 972.51 | 966.87 | 1.109 | 1.005 | 0.915
x1 = 1 | 988.35 | 982.64 | 976.44 | 1.107 | 1.001 | 0.907

CC1OC(C)OC(C)O1 (stereo not drawn) [2,4,6-trimethyl-1,3,5-trioxane] + CCO
[2]
Conditions | mass density, 298.15 K [kg/m3] | mass density, 303.15 K [kg/m3] | mass density, 308.15 K [kg/m3] | viscosity, 298.15 K [mPa·s] | viscosity, 303.15 K [mPa·s] | viscosity, 308.15 K [mPa·s]
x1 = 0.0372 | 802.48 | 798.21 | 793.84 | 1.071 | 0.979 | 0.886
x1 = 0.0801 | 820.65 | 816.3 | 811.97 | 1.059 | 0.966 | 0.876
x1 = 0.1299 | 839.52 | 835.19 | 830.81 | 1.045 | 0.952 | 0.866
x1 = 0.1885 | 859.12 | 854.68 | 850.28 | 1.031 | 0.938 | 0.855
x1 = 0.2589 | 879.57 | 875.01 | 870.45 | 1.016 | 0.924 | 0.844
x1 = 0.3433 | 900.45 | 895.77 | 890.94 | 1.003 | 0.912 | 0.835
x1 = 0.4485 | 922.04 | 917.27 | 912.16 | 0.994 | 0.903 | 0.828
x1 = 0.5823 | 944.05 | 939.04 | 933.74 | 0.995 | 0.904 | 0.829
x1 = 0.6816 | 957.34 | 952.18 | 946.76 | 1.006 | 0.915 | 0.837
x1 = 0.7582 | 966.15 | 960.83 | 955.25 | 1.022 | 0.929 | 0.849
x1 = 0.8003 | 970.54 | 965.15 | 959.44 | 1.033 | 0.939 | 0.857
x1 = 0.8452 | 974.98 | 969.45 | 963.6 | 1.048 | 0.951 | 0.868
x1 = 0.8932 | 979.38 | 973.8 | 967.86 | 1.065 | 0.967 | 0.881
x1 = 0.9446 | 983.9 | 978.26 | 972.13 | 1.088 | 0.986 | 0.897
x1 = 1 | 988.35 | 982.64 | 976.44 | 1.107 | 1.001 | 0.907

CCCCO [butan-1-ol]
[1]
Conditions | mass density [kg/m3] | viscosity [mPa·s]
298.15 K | 805.84 | 2.618
303.15 K | 802 | 2.297
308.15 K | 798.2 | 2.032

CCCCO [butan-1-ol] + CC1OC(C)OC(C)O1
[2], x2 = 0
Conditions | mass density [kg/m3] | viscosity [mPa·s]
298.15 K | 805.84 | 2.618
303.15 K | 802 | 2.297
308.15 K | 798.2 | 2.032

CCO [ethanol]
[1]
Conditions | mass density [kg/m3] | viscosity [mPa·s]
298.15 K | 785.06 | 1.083
303.15 K | 780.74 | 0.99
308.15 K | 776.48 | 0.895

CCO [ethanol] + CC1OC(C)OC(C)O1
[2], x2 = 0
Conditions | mass density [kg/m3] | viscosity [mPa·s]
298.15 K | 785.06 | 1.083
303.15 K | 780.74 | 0.99
308.15 K | 776.48 | 0.895

CCCO [propan-1-ol]
[1]
Conditions | mass density [kg/m3] | viscosity [mPa·s]
298.15 K | 799.6 | 1.943
303.15 K | 794.64 | 1.725
308.15 K | 790.53 | 1.537

CCCO [propan-1-ol] + CC1OC(C)OC(C)O1
[2], x2 = 0
Conditions | mass density [kg/m3] | viscosity [mPa·s]
298.15 K | 799.6 | 1.943
303.15 K | 794.64 | 1.725
308.15 K | 790.53 | 1.537
